Assay results taken from patent publication US7855290B2, “Pyridine derivatives and pyrimidine derivatives (3)” (Eisai R&D Management Co., Ltd., priority 2005, dated 2010).

Assays:
[1] = test system: Human umbilical vein endothelial cells (HUVECs); assay: Inhibitory activity against the growth of vascular endothelial cells stimulated with hepatocyte growth factor; type: cell-based; conditions: HUVEC, HGF stimulated, third day, Cell Counting Kit-8, read-out: IC50 (cell proliferation activity)
Description: Human umbilical vein endothelial cells (HUVECs) were isolated according to the reported method (Shin Seikagaku Jikken Koza, “Cell culturing techniques”, p 197-202), and then cultured in a 5% CO2 incubator (37° C.) using EGM-2 medium (purchased from Clonetics) until the cells reached confluency.
HUVECs were suspended in a serum-free medium for endothelial cell culture (SFM, purchased from GIBCO RBL) containing 2% FBS. The cell suspension (2×10^4 cells/ml) was put in a cell culturing 96-well plate (purchased from NUNC, Production No. 167008) at 0.1 ml/well, and then cultured in a 5% CO2 incubator (37° C.) overnight. After the culture, each well was supplied with 50 μl of the test substance diluted with a 2% FBS-containing serum-free medium for endothelial cell culture and 50 μl of HGF (purchased from R&D) diluted at a concentration of 120 ng/ml with a 2% FBS-containing serum-free medium for endothelial cell culture, followed by culturing in a 5% CO2 incubator (37° C.). On the third day after the addition of the test substance, each well was supplied with 10 μl of Cell Counting Kit-8 (purchased from DOJINDO, Production No. 343-07623), and then the plate was incubated in a 5% CO2 incubator (37° C.) for about 2 hours. After the incubation, using a Plate Reader MTP-500 (Corona Electric), the absorbance of each well was determined at a measurement wavelength of 450 nm and a reference wavelength of 660 nm. While defining the absorbance of a well supplied with HGF and no test substance as 100% cell proliferation activity and the absorbance of the well supplied with no test substance and no HGF as 0% cell proliferation activity, the cell proliferation activity ratio (%) was calculated for each cell.

[2] = biological target: T1, HGFR (Homo sapiens, UniProt P08581); assay: Inhibitory activity against the HGFR autophosphorylation using ELISA (MKN-45 cells); type: cell-based; conditions: 1 hr with test substance
T1 construct: endogenous in cells; host or cells: MKN-45 human gastric cancer cells
T1 sequence (P08581 25-1390): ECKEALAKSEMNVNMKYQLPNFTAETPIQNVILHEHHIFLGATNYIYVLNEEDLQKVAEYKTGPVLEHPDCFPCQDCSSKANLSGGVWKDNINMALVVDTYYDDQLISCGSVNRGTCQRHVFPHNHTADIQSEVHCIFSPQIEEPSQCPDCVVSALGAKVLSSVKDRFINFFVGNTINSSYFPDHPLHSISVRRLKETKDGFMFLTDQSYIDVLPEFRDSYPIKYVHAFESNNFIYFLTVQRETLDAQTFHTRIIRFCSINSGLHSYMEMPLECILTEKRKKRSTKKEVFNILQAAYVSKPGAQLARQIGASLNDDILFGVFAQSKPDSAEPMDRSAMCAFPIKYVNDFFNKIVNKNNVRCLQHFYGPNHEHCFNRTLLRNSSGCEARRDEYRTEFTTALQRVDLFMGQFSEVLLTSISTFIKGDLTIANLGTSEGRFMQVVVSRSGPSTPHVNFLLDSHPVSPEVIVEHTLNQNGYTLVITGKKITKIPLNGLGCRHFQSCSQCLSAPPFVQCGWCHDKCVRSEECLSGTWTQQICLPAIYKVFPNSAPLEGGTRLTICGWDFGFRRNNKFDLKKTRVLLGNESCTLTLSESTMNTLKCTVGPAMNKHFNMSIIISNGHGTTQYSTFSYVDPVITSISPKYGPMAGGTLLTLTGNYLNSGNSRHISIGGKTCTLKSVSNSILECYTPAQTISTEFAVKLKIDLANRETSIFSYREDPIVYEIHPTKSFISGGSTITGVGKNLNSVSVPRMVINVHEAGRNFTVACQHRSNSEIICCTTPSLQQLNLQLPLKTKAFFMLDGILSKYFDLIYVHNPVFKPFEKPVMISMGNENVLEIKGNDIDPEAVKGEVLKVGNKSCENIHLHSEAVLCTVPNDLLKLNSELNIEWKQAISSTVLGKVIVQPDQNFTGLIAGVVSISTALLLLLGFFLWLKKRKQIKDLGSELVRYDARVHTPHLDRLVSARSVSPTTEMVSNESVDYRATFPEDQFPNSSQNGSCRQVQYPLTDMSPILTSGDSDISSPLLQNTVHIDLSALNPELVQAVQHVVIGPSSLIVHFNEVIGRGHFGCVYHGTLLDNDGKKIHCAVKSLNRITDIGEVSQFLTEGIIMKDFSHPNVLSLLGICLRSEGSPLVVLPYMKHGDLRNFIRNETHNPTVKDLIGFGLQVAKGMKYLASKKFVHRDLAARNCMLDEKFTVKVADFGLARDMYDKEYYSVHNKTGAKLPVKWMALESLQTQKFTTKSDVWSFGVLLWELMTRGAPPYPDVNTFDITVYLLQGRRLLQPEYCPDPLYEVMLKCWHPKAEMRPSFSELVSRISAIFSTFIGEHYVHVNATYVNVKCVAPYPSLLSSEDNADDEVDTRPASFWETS
Procedure, shortened: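 HGFR autophosphorylation measured by sandwich ELISA: anti-phosphotyrosine PY20 capture, anti-HGFR detection, HRP secondary, TMB read at 450 nm. Lysates came from MKN-45 cells given test substance for 1 h at 37° C in 1% FBS RPMI1640. Percent activity normalised between no-compound extract and lysis buffer alone.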

Row | IC50 [2] [nM] | SMILES | IC50 [1] [nM]
1 | 18 | CN1CCC(N(C)C(=O)Nc2cc(Oc3ccc(NC(=O)C4(C(=O)Nc5ccc(F)cc5)CC4)cc3F)ccn2)CC1 [Example 1, N-(3-Fluoro-4-{[2-({[methyl(1-methylpiperidin-4-yl)amino]carbonyl}amino)pyridin-4-yl]oxy}phenyl)-N′-(4-fluorophenyl)cyclopropane-1.1-dicarboxamide] | 4.6
2 | 19 | CN1CCC(N(C)C(=O)Nc2cc(Oc3ccc(NC(=O)C4(C(=O)Nc5ccc(F)cc5)CC4)c(F)c3)ccn2)CC1 [Example 3, N-(2-Fluoro-4-{[2-({[methyl(1-methylpiperidin-4-yl)amino]carbonyl}amino)pyridin-4-yl]oxy}phenyl)-N′-(4-fluorophenyl)cyclopropane-1,1-dicarboxamide] | 13
3 | 35 | CN(C)CCN1CCN(C(=O)Nc2cc(Oc3ccc(NC(=O)C4(C(=O)Nc5ccc(F)cc5)CC4)cc3F)ccn2)CC1 [Example 7, N-[4-({2-[({4-[2-(Dimethylamino)ethyl]piperazin-1-yl}carbonyl)amino]pyridin-4-yl}oxy)-3-fluorophenyl]-N′-(4-fluorophenyl)cyclopropane-1,1-dicarboxamide] | 18
4 | 11 | O=C(Nc1cc(Oc2ccc(NC(=O)C3(C(=O)Nc4ccc(F)cc4)CC3)c(F)c2)ccn1)N1CCC(N2CCC2)CC1 [Example 9, N-{4-[(2-{[(4-Azetidin-1-ylpiperidin-1-yl)carbonyl]amino}pyridin-4-yl)oxy]-2-fluorophenyl}-N′-(4-fluorophenyl)cyclopropane-1,1-dicarboxamide] | 25
5 | 13 | O=C(Nc1cc(Oc2ccc(NC(=O)C3(C(=O)Nc4ccc(F)cc4)CC3)cc2F)ccn1)N1CCC(N2CCC2)CC1 [Example 11, N-{4-[(2-{[(4-Azetidin-1-ylpiperidin-1-yl)carbonyl]amino}pyridin-4-yl)oxy]-3-fluorophenyl}-N′-(4-fluorophenyl)cyclopropane-1,1-dicarboxamide] | 33
6 | 19 | CN(C)C1CN(C2CCN(C(=O)Nc3cc(Oc4ccc(NC(=O)C5(C(=O)Nc6ccc(F)cc6)CC5)c(F)c4)ccn3)CC2)C1 [Example 14, N-[4-({2-[({4-[3-(Dimethylamino)azetidin-1-yl]piperidin-1-yl}carbonyl)amino]pyridin-4-yl}oxy)-2-fluorophenyl]-N′-(4-fluorophenyl)cyclopropane-1,1-dicarboxamide] | 23
7 | 15 | CN1CC(N2CCN(C(=O)Nc3cc(Oc4ccc(NC(=O)C5(C(=O)Nc6ccc(F)cc6)CC5)c(F)c4)ccn3)CC2)C1 [Example 17] | 17
8 | 11 | CN(C)C1CN(C2CCN(C(=O)Nc3cc(Oc4ccc(NC(=O)C5(C(=O)Nc6ccc(F)cc6)CC5)cc4F)ccn3)CC2)C1 [Example 21, N-[4-({2-[({4-[3-(Dimethylamino)azetidin-1-yl]piperidin-1-yl}carbonyl)amino]pyridin-4-yl}oxy)-3-fluorophenyl]-N′-(4-fluorophenyl)cyclopropane-1,1-dicarboxamide] | 24
9 | 10 | O=C(Nc1cc(Oc2ccc(NC(=O)C3(C(=O)Nc4ccc(F)cc4)CC3)c(F)c2)ccn1)N1CC(O)C1 [Example 72, N-{2-Fluoro-4-[(2-{[(3-hydroxyazetidin-1-yl)carbonyl]amino}pyridin-4-yl)oxy]phenyl}-N′-(4-fluorophenyl)cyclopropane-1,1-dicarboxamide] | –
10 | 8 | O=C(Nc1cc(Oc2ccc(NC(=O)C3(C(=O)Nc4ccc(F)cc4)CC3)c(F)c2)ccn1)N1CC(N2CCC2)C1 [Example 73, N-[4-({2-[(1,3′-Biazetidin-1′-ylcarbonyl)amino]pyridin-4-yl}oxy)-2-fluorophenyl]-N′-(4-fluorophenyl)cyclopropane-1,1-dicarboxamide] | –
11 | 13 | O=C(Nc1cc(Oc2ccc(NC(=O)C3(C(=O)Nc4ccc(F)cc4)CC3)c(F)c2)ccn1)N1CC(CO)C1 [Example 75] | –
12 | 30 | CN(C)C1CN(C(=O)Nc2cc(Oc3ccc(NC(=O)C4(C(=O)Nc5ccc(F)cc5)CC4)c(F)c3)ccn2)C1 [Example 76, N-(4-{[2-({[3-(Dimethylamino)azetidin-1-yl]carbonyl}amino)pyridin-4-yl]oxy}-2-fluorophenyl)-N′-(4-fluorophenyl)cyclopropane-1,1-dicarboxamide] | –
13 | 13 | CN(C)CC1CN(C(=O)Nc2cc(Oc3ccc(NC(=O)C4(C(=O)Nc5ccc(F)cc5)CC4)c(F)c3)ccn2)C1 [Example 77, N-[4-({2-[({3-[(Dimethylamino)methyl]azetidin-1-yl}carbonyl)amino]pyridin-4-yl}oxy)-2-fluorophenyl]-N′-(4-fluorophenyl)cyclopropane-1,1-dicarboxamide] | –
14 | 15 | COC1CN(C(=O)Nc2cc(Oc3ccc(NC(=O)C4(C(=O)Nc5ccc(F)cc5)CC4)c(F)c3)ccn2)C1 [Example 78, N-[2-Fluoro-4-[(2-{[(3-methoxyazetidin-1-yl)carbonyl]amino}pyridin-4-yl)oxy]phenyl}-N′-(4-fluorophenyl)cyclopropane-1,1-dicarboxamide] | –
15 | 16 | COC1CN(C(=O)Nc2cc(Oc3ccc(NC(=O)C4(C(=O)Nc5ccc(F)cc5)CC4)cc3F)ccn2)C1 [Example 79] | –
16 | 14 | O=C(Nc1cc(Oc2ccc(NC(=O)C3(C(=O)Nc4ccc(F)cc4)CC3)cc2F)ccn1)N1CC(O)C1 [Example 80, N-{3-Fluoro-4-[(2-{[(3-hydroxyazetidin-1-yl)carbonyl]amino}pyridin-4-yl)oxy]phenyl}-N′-(4-fluorophenyl)cyclopropane-1,1-dicarboxamide] | –
17 | 14 | O=C(Nc1cc(Oc2cc(F)c(NC(=O)C3(C(=O)Nc4ccc(F)cc4)CC3)cc2F)ncn1)N1CC(CO)C1 [Example 99, N-(2,5-Difluoro-4-{[4-({[3-(hydroxymethyl)azetidin-1-yl]carbonyl}amino)pyrimidin-6-yl]oxy}phenyl)-N′-(4-fluorophenyl)cyclopropane-1,1-dicarboxamide] | –
18 | 9.4 | CN1CCC(N(C)C(=O)Nc2cc(Oc3cc(F)c(NC(=O)C4(C(=O)Nc5ccc(F)cc5)CC4)cc3F)ncn2)CC1 [Example 100, N-(2,5-Difluoro-4-{[4-({[methyl(1-methylpiperidin-4-yl)amino]carbonyl}amino)pyrimidin-6-yl]oxy}phenyl)-N′-(4-fluorophenyl)cyclopropane-1,1-dicarboxamide] | –
19 | 15 | CN1CCN(C2CCN(C(=O)Nc3cc(Oc4cc(F)c(NC(=O)C5(C(=O)Nc6ccc(F)cc6)CC5)cc4F)ncn3)CC2)CC1 [Example 101, N-(2,5-Difluoro-4-{[4-({[4-(4-methylpiperazin-1-yl)piperidin-1-yl]carbonyl}amino)pyrimidin-6-yl]oxy}phenyl)-N′-(4-fluorophenyl)cyclopropane-1,1-dicarboxamide] | –
20 | 41 | CN(C)C1CCN(C(=O)Nc2cc(Oc3cc(F)c(NC(=O)C4(C(=O)Nc5ccc(F)cc5)CC4)cc3F)ncn2)CC1 [Example 102, N-(4-{[4-({[4-(Dimethylamino)piperidin-1-yl]carbonyl}amino)pyrimidin-6-yl]oxy}-2,5-difluorophenyl)-N′-(4-fluorophenyl)cyclopropane-1,1-dicarboxamide] | –
21 | 12 | CN(C)C1CCN(C(=O)Nc2cc(Oc3cc(F)c(NC(=O)C4(C(=O)Nc5ccc(F)cc5)CC4)cc3F)ccn2)CC1 [Example 103, N-(4-{[2-({[4-(Dimethylamino)piperidin-1-yl]carbonyl}amino)pyridin-4-yl]oxy}-2,5-difluorophenyl)-N′-(4-fluorophenyl)cyclopropane-1,1-dicarboxamide] | –
22 | 15 | CN1CCN(C(=O)Nc2cc(Oc3cc(F)c(NC(=O)C4(C(=O)Nc5ccc(F)cc5)CC4)cc3F)ccn2)CC1 [Example 104, N-{2,5-Difluoro-4-[(2-{[(4-methylpiperazin-1-yl)carbonyl]amino}pyridin-4-yl]oxy}phenyl)-N′-(4-fluorophenyl)cyclopropane-1,1-dicarboxamide] | –
23 | 8.6 | O=C(Nc1cc(Oc2cc(F)c(NC(=O)C3(C(=O)Nc4ccc(F)cc4)CC3)cc2F)ccn1)N1CCC(O)CC1 [Example 105] | –
24 | 39 | O=C(Nc1cc(Oc2ccc(NC(=O)C3(C(=O)Nc4ccc(F)cc4)CC3)c(F)c2F)ccn1)N1CC(O)C1 [Example 106, N-[2,3-Difluoro-4-[(2-{[(3-hydroxyazetidin-1-yl)carbonyl]amino}pyridin-4-yl)oxy]phenyl}-N′-(4-fluorophenyl)cyclopropane-1,1-dicarboxamide] | –
25 | 36 | CN(C)CC1CN(C(=O)Nc2cc(Oc3ccc(NC(=O)C4(C(=O)Nc5ccc(F)cc5)CC4)c(F)c3F)ccn2)C1 [Example 107, N-[4-({2-[({3-[(Dimethylamino)methyl]azetidine-1-yl}carbonyl)amino]pyridin-4-yl}oxy)-2,3-difluorophenyl]-N′-(4-fluorophenyl)cyclopropane-1,1-dicarboxamide] | –
